Results as given in publication PMC10006169, “A phase I trial of LXS196, a protein kinase C (PKC) inhibitor, for metastatic uveal melanoma” (British Journal of Cancer, 2023).

Test system: patients with MUM
Assay: Adverse events suspected to be study drug related (NCI-CTCAE v4.03)
Format: in vivo, human
Description: Routine safety assessments, including laboratory assessments, physical examinations, vital signs and electrocardiograms (ECGs), were conducted at regular intervals throughout the study and more frequently as needed following patient assessment by the treating physician. Adverse events (AEs) were assessed continuously according to the National Cancer Institute Common Terminology Criteria for Adverse Events (NCI-CTCAE) v4.03.

`CC1(N)CCN(c2cccnc2NC(=O)c2nc(-c3ncccc3C(F)(F)F)cnc2N)CC1` [LXS196] was tested, and the “ALT increased, all grades” value (100 mg QD) was 0 n (%), the “ALT increased, grade ≥3” value (100 mg QD) was 0 n (%) and the “AST increased, all grades” value (100 mg QD) was 0 n (%). The “AST increased, grade ≥3” value (100 mg QD) was 0 n (%), the “Asthenia, all grades” value (100 mg QD) was 0 n (%) and the “Asthenia, grade ≥3” value (100 mg QD) was 0 n (%). For the same molecule, the “Blood creatinine increased, all grades” value (100 mg QD) was 0 n (%), the “Blood creatinine increased, grade ≥3” value (100 mg QD) was 0 n (%) and the “Constipation, all grades” value (100 mg QD) was 1 (33.3) n (%). The “Constipation, grade ≥3” value (100 mg QD) was 0 n (%), the “Diarrhoea, all grades” value (100 mg QD) was 1 (33.3) n (%) and the “Diarrhoea, grade ≥3” value (100 mg QD) was 0 n (%). The “Dry skin, all grades” value (100 mg QD) was 0 n (%), the “Dry skin, grade ≥3” value (100 mg QD) was 0 n (%) and the “Fatigue, all grades” value (100 mg QD) was 0 n (%). The “Fatigue, grade ≥3” value (100 mg QD) was 0 n (%), the “Hypotension, all grades” value (100 mg QD) was 0 n (%) and the “Hypotension, grade ≥3” value (100 mg QD) was 0 n (%). For the same molecule, the “Nausea, all grades” value (100 mg QD) was 2 (66.7) n (%), the “Nausea, grade ≥3” value (100 mg QD) was 0 n (%) and the “Patients with ≥1 AE, all grades” value (100 mg QD) was 2 (66.7) n (%). The “Patients with ≥1 AE, grade ≥3” value (100 mg QD) was 0 n (%), the “Rash, all grades” value (100 mg QD) was 0 n (%) and the “Rash, grade ≥3” value (100 mg QD) was 0 n (%). The “Vomiting, all grades” value (100 mg QD) was 0 n (%), the “Vomiting, grade ≥3” value (100 mg QD) was 0 n (%) and the “ALT increased, all grades” value (200 mg QD) was 0 n (%). The “ALT increased, grade ≥3” value (200 mg QD) was 0 n (%), the “AST increased, all grades” value (200 mg QD) was 0 n (%) and the “AST increased, grade ≥3” value (200 mg QD) was 0 n (%). For the same molecule, the “Asthenia, all grades” value (200 mg QD) was 1 (25.0) n (%), the “Asthenia, grade ≥3” value (200 mg QD) was 0 n (%) and the “Blood creatinine increased, all grades” value (200 mg QD) was 1 (25.0) n (%). For the same molecule, the “Blood creatinine increased, grade ≥3” value (200 mg QD) was 0 n (%), the “Constipation, all grades” value (200 mg QD) was 2 (50.0) n (%) and the “Constipation, grade ≥3” value (200 mg QD) was 0 n (%). For the same molecule, the “Diarrhoea, all grades” value (200 mg QD) was 1 (25.0) n (%), the “Diarrhoea, grade ≥3” value (200 mg QD) was 0 n (%) and the “Dry skin, all grades” value (200 mg QD) was 0 n (%). The “Dry skin, grade ≥3” value (200 mg QD) was 0 n (%), the “Fatigue, all grades” value (200 mg QD) was 0 n (%) and the “Fatigue, grade ≥3” value (200 mg QD) was 0 n (%). The “Hypotension, all grades” value (200 mg QD) was 0 n (%), the “Hypotension, grade ≥3” value (200 mg QD) was 0 n (%) and the “Nausea, all grades” value (200 mg QD) was 2 (50.0) n (%). The “Nausea, grade ≥3” value (200 mg QD) was 1 (25.0) n (%), the “Patients with ≥1 AE, all grades” value (200 mg QD) was 4 (100) n (%) and the “Patients with ≥1 AE, grade ≥3” value (200 mg QD) was 2 (50.0) n (%). For the same molecule, the “Rash, all grades” value (200 mg QD) was 0 n (%), the “Rash, grade ≥3” value (200 mg QD) was 0 n (%) and the “Vomiting, all grades” value (200 mg QD) was 2 (50.0) n (%). The “Vomiting, grade ≥3” value (200 mg QD) was 1 (25.0) n (%), the “ALT increased, all grades” value (300 mg BID (RDE)) was 5 (27.8) n (%) and the “ALT increased, grade ≥3” value (300 mg BID (RDE)) was 1 (5.6) n (%). The “AST increased, all grades” value (300 mg BID (RDE)) was 3 (16.7) n (%), the “AST increased, grade ≥3” value (300 mg BID (RDE)) was 1 (5.6) n (%) and the “Asthenia, all grades” value (300 mg BID (RDE)) was 4 (22.2) n (%). For the same molecule, the “Asthenia, grade ≥3” value (300 mg BID (RDE)) was 0 n (%), the “Blood creatinine increased, all grades” value (300 mg BID (RDE)) was 2 (11.1) n (%) and the “Blood creatinine increased, grade ≥3” value (300 mg BID (RDE)) was 0 n (%). For the same molecule, the “Constipation, all grades” value (300 mg BID (RDE)) was 1 (5.6) n (%), the “Constipation, grade ≥3” value (300 mg BID (RDE)) was 0 n (%) and the “Diarrhoea, all grades” value (300 mg BID (RDE)) was 11 (61.1) n (%). For the same molecule, the “Diarrhoea, grade ≥3” value (300 mg BID (RDE)) was 1 (5.6) n (%), the “Dry skin, all grades” value (300 mg BID (RDE)) was 4 (22.2) n (%) and the “Dry skin, grade ≥3” value (300 mg BID (RDE)) was 0 n (%). For the same molecule, the “Fatigue, all grades” value (300 mg BID (RDE)) was 3 (16.7) n (%), the “Fatigue, grade ≥3” value (300 mg BID (RDE)) was 0 n (%) and the “Hypotension, all grades” value (300 mg BID (RDE)) was 3 (16.7) n (%). The “Hypotension, grade ≥3” value (300 mg BID (RDE)) was 0 n (%), the “Nausea, all grades” value (300 mg BID (RDE)) was 14 (77.8) n (%) and the “Nausea, grade ≥3” value (300 mg BID (RDE)) was 0 n (%). The “Patients with ≥1 AE, all grades” value (300 mg BID (RDE)) was 17 (94.4) n (%), the “Patients with ≥1 AE, grade ≥3” value (300 mg BID (RDE)) was 2 (11.1) n (%) and the “Rash, all grades” value (300 mg BID (RDE)) was 4 (22.2) n (%). The “Rash, grade ≥3” value (300 mg BID (RDE)) was 0 n (%), the “Vomiting, all grades” value (300 mg BID (RDE)) was 7 (38.9) n (%) and the “Vomiting, grade ≥3” value (300 mg BID (RDE)) was 0 n (%). The “ALT increased, all grades” value (300 mg QD) was 3 (20.0) n (%), the “ALT increased, grade ≥3” value (300 mg QD) was 1 (6.7) n (%) and the “AST increased, all grades” value (300 mg QD) was 1 (6.7) n (%). The “AST increased, grade ≥3” value (300 mg QD) was 1 (6.7) n (%), the “Asthenia, all grades” value (300 mg QD) was 3 (20.0) n (%) and the “Asthenia, grade ≥3” value (300 mg QD) was 0 n (%). For the same molecule, the “Blood creatinine increased, all grades” value (300 mg QD) was 1 (6.7) n (%), the “Blood creatinine increased, grade ≥3” value (300 mg QD) was 0 n (%) and the “Constipation, all grades” value (300 mg QD) was 1 (6.7) n (%). The “Constipation, grade ≥3” value (300 mg QD) was 0 n (%), the “Diarrhoea, all grades” value (300 mg QD) was 4 (26.7) n (%) and the “Diarrhoea, grade ≥3” value (300 mg QD) was 0 n (%). The “Dry skin, all grades” value (300 mg QD) was 1 (6.7) n (%), the “Dry skin, grade ≥3” value (300 mg QD) was 0 n (%) and the “Fatigue, all grades” value (300 mg QD) was 7 (46.7) n (%). For the same molecule, the “Fatigue, grade ≥3” value (300 mg QD) was 0 n (%), the “Hypotension, all grades” value (300 mg QD) was 1 (6.7) n (%) and the “Hypotension, grade ≥3” value (300 mg QD) was 0 n (%). The “Nausea, all grades” value (300 mg QD) was 9 (60.0) n (%).
